This is an account of results in US11622976B2, “Urine alkali agent useful for treatment of cancer patient” (Delta-Fly Pharma, Inc., priority 2018, dated 2023).

“Also recorded” adds a separate entry of the source.

Data set [1] deals with breast cancer associated with lung metastasis. The data set is described as follows: Urinary alkalinization therapy, breast cancer patient with lung metastasis (person). Type of data set: in vivo, human. The procedure:
A patient was diagnosed with breast cancer […] and underwent a surgical operation. In January, 2011, transfer of recurrent breast cancer to the lung was found. Administration of Taxotere (80 mg/m^2) was continued at the intervals of 3 weeks. […] Because of this, the dose of Taxotere was reduced to 60 mg/m^2 (intervals of 3 weeks).

A further data set deals with lung cancer. The data set is described as follows: Urinary alkalinization therapy, lung cancer patient. The data set is classed as in vivo, human. From the text: A patient successively underwent a surgery for breast cancer in March, 2009, a surgery for endometrial cancer in October, 2010 and a surgery for lung cancer (adenocarcinoma, upper right lobe) in December, 2011.
From January, 2012, application of a urinary alkalinization therapy, including orally administering magnesium oxide (laxative, Magmitt (manufactured by Kyowa Chemical Industry Co., Ltd.)) every day in a dose of 2 g per day after a meal three times (the dose being divided into three portions), was initiated.

The subject of the next data set is cancer cells. Conditions: pHe shifted from acidic to alkaline range by gradually increasing the concentration in the serum; cited from earlier work.
In another data set the test system is B16 melanoma cells. Conditions: aqueous solution 200 mmol/L (17 g/L) fed, with cancer immunotherapy by e.g. a cancer immunity-checkpoint inhibitor; vs water without sodium hydrogen carbonate; cited from earlier work.
For data set [2], the system named is gastric cancer (gastroesophageal junction cancer). Conditions: cited from earlier work.

As for `CC(=O)O[C@@]12CO[C@@H]1C[C@H](O)[C@@]1(C)C(=O)[C@H](O)C3=C(C)[C@@H](OC(=O)[C@H](O)[C@@H](NC(=O)OC(C)(C)C)c4ccccc4)C[C@@](O)([C@@H](OC(=O)c4ccccc4)[C@H]21)C3(C)C` [Taxotere, docetaxel], the side effect result in data set [1] (Taxotere alone 80 mg/m^2 every 3 weeks, six months) is reported as “severe side effect”. The disease state entry in data set [1] (Taxotere alone reduced to 60 mg/m^2 every 3 weeks) is “the disease did not become stable”.

`[O]=[Mg]` [magnesium oxide]: the “urine pH value” in the data set with lung cancer (continuous oral administration, 2 g per day) is reported as “kept in the alkaline pH range”. The “recurrence/metastasis, development of another cancer” value with lung cancer (oral, 2 g per day in three portions, every day from January, 2012, after surgeries) is “recurrence and metastasis of lung cancer have not been observed; also recorded: Neither development of another cancer nor recurrence/metastasis has been found”.

`O=C([O-])O.[Na+]` [sodium hydrogen carbonate]: the “proliferation and invasion of cancer cells” value in the data set with cancer cells was “the proliferation and invasion of cancer cells can be suppressed”. The antitumor effect result in the data set with B16 melanoma cells was “a significantly high antitumor effect is obtained”.

“Opdivo: immune checkpoint inhibitor containing anti-human PD-1 monoclonal antibody (nivolumab)”: in data set [2] (gastric cancer patients (gastroesophageal junction cancer), Lancet. 2017 Dec. 2, 390 (10111): 2461-2471), the median overall survival entry is given as “about 5.26 months”. Moreover, in data set [2] (patients with end-stage gastric cancer), the “tumor shrinkage and decrease of a tumor marker level” value was “seldom confirmed”.
